The nature of data set [1]: Solubility / appearance of avenanthramide solutions with and without 4-hydroxyacetophenone, evaluated at 22° C. The format is physicochemical. The method, then: The solubility of avenanthramides A, B, C, D or L and Dihydroavenanthramide D in solution in combination with 4-hydroxyacetophenone in different concentrations was evaluated against a solution of avenanthram ides A, B, C, D and L without 4-hydroxyacetophenone.
The corresponding avenanthramides were presolved in ethanol or glycol. Water and 4-hydroxyacetophenone were added under stirring and heating up the solution to 60° C. The appearance of the solutions was evaluated at 22° C. according to the following Table 1: […]

The conditions of data set [2]: Avn C, followed by Avn B and Avn A; cited from earlier work.
Setting [3] is: addition of 4-hydroxyacetophenone in concentration of 0.1 or 0.5 wt % (Table 3, Table 4 b).

Here are results for 4 compounds from US20230129036A1, “AVENANTHRAMIDE COMPOSITIONS WITH IMPROVED SOLUBILITY COMPRISING 4-HYDROXYPHENONE” (priority 2020, published 2023).

On to `O=C(C=Cc1ccc(O)cc1)Nc1ccc(O)cc1C(=O)O` [Avenanthramide A, N-(4′-hydroxycinnamoyl)-5-hydroxyanthranilic acid], for which the “Effect of 4-hydroxyacetophenone on solubility” value in data set [1] (4-hydroxyacetophenone 0.01 wt %) is listed as “improves the solubility”. The Appearance of solution result in data set [1] (setting [3]) is given as “clear solutions without turbidity or precipitation”.

Regarding `O=C(C=Cc1ccc(O)c(O)c1)Nc1ccc(O)cc1C(=O)O` [Avenanthramide C, N-(3′-4′-dihydroxycinnamoyl)-5-hydroxyanthranilic acid], the “Antioxidant activity, ranking among Avns” value in data set [2] is listed as “highest activity”.

For `O=C(/C=C/C=C/c1ccc(O)cc1)Nc1ccc(O)cc1C(=O)O` [Avenanthramide L], the Appearance of solution result in data set [1] (4-hydroxyacetophenone concentration increased to 0.5% as in Table 4 b) was “clear solution”; in data set [1] (setting [3]) it was “clear solutions without turbidity or precipitation”. The “Effect of addition of 4-hydroxyacetophenone on solubility / appearance” value in data set [1] (versus solution without 4-hydroxyacetophenone, increasing concentration) is on record as “improved”.

With `O=C(CCc1ccc(O)cc1)Nc1ccccc1C(=O)O` [Dihydroavenanthramide D, 2-[(3-(4-hydroxyphenyl)propanoyl]amido)benzoic acid], in data set [1] (addition of 4-hydroxyacetophenone in concentrations of 0.5 to 1.0% (Tables 7 a and 7 b)), the Appearance of solution entry was “clear solutions withouts turbidity or precipitation”.
